Usually IC50 stands for the concentration that gives 50% inhibition. Read a high IC50 as weaker potency. The term solubility denotes the concentration that dissolves in the medium under given conditions. A lower solubility goes with little dissolved substance.

The target of series [1] is T1, RNA triphosphatase TbCet1 (Trypanosoma brucei brucei, UniProt Q582T2).
T1 sequence (Q582T2 1-253): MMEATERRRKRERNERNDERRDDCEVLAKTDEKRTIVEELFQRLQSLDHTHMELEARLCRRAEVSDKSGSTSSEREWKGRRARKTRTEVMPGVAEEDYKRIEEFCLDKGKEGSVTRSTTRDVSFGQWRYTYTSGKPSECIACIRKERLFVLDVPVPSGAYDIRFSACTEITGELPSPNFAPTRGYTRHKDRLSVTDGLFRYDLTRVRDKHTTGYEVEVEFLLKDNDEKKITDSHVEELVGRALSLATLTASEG
Description: Transcreener ADP fluorescence polarization assay, dose-response. The series is classed as biochemical. (In general: In fluorescence polarisation assays a small probe gives low polarisation when free and higher when bound to something large.)

A short description of the next series: physchem. The settings on record: pH 8, aqueous buffer, kinetic from dmso stock.
The nature of series [2]: Solubility by laser nephelometry in assay conditions. The settings on record: for Sol. (solubility threshold): laser nephelometry, assay conditions.

SMILES strings stand for the structures.

In turn, `O=C1C=C2CC3(O)COc4c(ccc(O)c4O)C3=C2C=C1O` (stereo not shown) [SKI 210893, Hematein] came in with an IC50 in series [1] of 200 nM. On the same count and under the same terms, then `O=c1c(O)c(-c2ccc(O)c(O)c2)oc2cc(O)ccc12` [SKI 210887, Fisetin], with 2100 nM.

Take `NC[C@H](O)c1ccc(O)c(O)c1` [SKI 210170, Norepinephrine, reference compound]: in “physchem”, the solubility is above 100 µM. The compound also displayed an IC50 in series [1] of 720 nM.

The compound `O=c1c(O)cc([C@H]2Oc3cc(O)cc(O)c3C[C@H]2O)cc2c([C@H]3Oc4cc(O)cc(O)c4C[C@H]3O)cc(O)c(O)c12` [SKI 209343, Theaflavin] displayed a 50% inhibitory concentration (IC50) in series [1] of 8800 nM.

`Oc1cc(O)c2c(c1)O[C@H](c1cc(O)c(O)c(O)c1)[C@H](O)C2` [SKI 209444, Epigallocatechin] registered an IC50 in series [1] of 4400 nM.

In the case of `Nc1cccc2c1C(=O)c1cccc(N)c1C2=O` [SKI 217754, Anthraquinone, 1,5-diamino], in series [2], the “Sol. (solubility threshold)” value is above 100 µM. Still for that read-out and setting: next, `O=C(Oc1cc(O)cc2c1C[C@@H](OC(=O)c1cc(O)c(O)c(O)c1)[C@@H](c1cc(O)c(O)c(O)c1)O2)c1cc(O)c(O)c(O)c1` [SKI 209415, Epigallocatechin-3,5-digallate]: above 100 µM. On to `O=c1oc2c(O)c(O)cc3c(=O)oc4c(O)c(O)cc1c4c23` [SKI 210886, Ellagic acid], for which half-maximal inhibition in series [1] (IC50) was put at 35 nM. On to `O=C(O[C@@H]1Cc2c(O)cc(O)cc2O[C@@H]1c1ccc(O)c(O)c1)c1cc(O)c(O)c(O)c1` [SKI 209457, Epicatechin monogallate], for which the “Sol. (solubility threshold)” value in series [2] was above 100 µM.

For `O=C(O[C@@H]1Cc2c(O)cc(O)cc2O[C@@H]1c1cc(O)c(O)c(O)c1)c1cc(O)c(O)c(O)c1` [SKI 209458, Epigallocatechin-3-monogallate], the “Sol. (solubility threshold)” value in series [2] was above 100 µM.

In the case of `O=c1c(O)cccc2c([C@H]3Oc4cc(O)cc(O)c4C[C@H]3O)cc(O)c(O)c12` [SKI 209509, Theaflavanin], it took 440 nM to reach half-maximal inhibition in series [1] (IC50).

As to `Oc1cc2c(cc1O)C1c3ccc(O)c(O)c3OCC1(O)C2` (stereo not shown) [SKI 209325, Haematoxylin], the solubility in “physchem” was above 100 µM. Besides, the midpoint of inhibition in series [1], the IC50, lay at 1700 nM. Turning to `COc1cc(O)c2c(=O)c(O)c(-c3ccc(O)c(O)c3)oc2c1` [SKI 209674, Rhamnetin], half-maximal inhibition in series [1] (IC50) was put at 3900 nM. Same read-out and setting: then `O=C(O[C@@H]1Cc2c(O)cc(O)cc2O[C@@H]1c1cc(O)c(O)c(O)c1-c1c([C@H]2Oc3cc(O)cc(O)c3C[C@H]2O)cc(O)c(O)c1O)c1cc(O)c(O)c(O)c1` [SKI 209412, 2′,2′-Bisepigallocatechin monogallate], with 10 nM. Regarding `N[C@@H](Cc1ccc(O)c(O)c1)C(=O)O` [SKI 211511, Levodopa, reference compound], the solubility in “physchem” was above 100 µM. The same compound returned an IC50 in series [1] of 30 nM. `O=c1c(-c2cc(O)c(O)c(O)c2)coc2cc(O)c(O)c(O)c12` [SKI 209392, Irigenol]: inhibition in series [1] was half-maximal at 65 nM (IC50). On the same count and under the same terms, next, `O=c1c(O)cccc2cc(O)c(O)c(O)c12` [SKI 209468, Purpurogallin]: 210 nM. `O=c1c(O)c(-c2cc(O)c(O)c(O)c2)oc2cc(O)cc(O)c12` [SKI 211290, Myricetin]: the IC50 in series [1] turned out to be 7200 nM. Also, the solubility in series [2] (pH 8, aqueous buffer, kinetic from dmso stock) is above 100 µM.
